Patent publication US6638523B1, “Method of treating ulcers” (Nagase & Company, Ltd., priority 1999, dated 2003)

Key:
[1] = system: ulcers developed in the stomach; test: Ethanol-induced gastric ulcer in rats; type: in vivo, Wistar male rats; conditions: for ED50: Rattus norvegicus, oral administration 30 min before 1 ml ethanol (99.5%), total ulcer length after 1 h, read-out: ED50 (anti-ulcer action); for anti-ulcer action: oral, carnosic acid 1, 5, 25 mg/kg, carnosol 2.5, 10, 25 mg/kg, ethanol ulcer, FIG. 1 and 2
Experimental: To Wistar male rats (5 rats per group) of 180-200 g body weight fasted for 24 hours before the start of a test, carnosic acid obtained in Example 1 was orally administered in dose levels of 1, 5 and 25 mg per kg body weight, after suspending it in water. Similarly, carnosol obtained in Example 1 was orally administered in dose levels of 2.5, 10 and 25 mg per kg body weight, after suspending it in water. After 30 minutes of the administration, 1 ml of ethanol (99.5%) was orally administered to each rat. After one hour of the ethanol administration, laparotomy was carried out and the lengths of all ulcers developed in the stomach were measured and added up. Similar measurements were carried out on the rats of the control group which received ethanol without receiving the above compounds and the result obtained was compared with the above results.

[2] = system: ulcers developed in the stomach; conditions: well known anti-ulcer compound, comparison value; cited from earlier work

## CC(C)c1cc2c(c(O)c1O)[C@@]1(C(=O)O)CCCC(C)(C)[C@@H]1CC2 [carnosic acid]
[1]
  ED50: 3.1 mg/kg
  anti-ulcer action: potent anti-ulcer action

## NC(N)=Nc1nc(CSCCN/C=N/S(=O)(=O)c2ccc(Br)cc2)cs1 [ebrotidine]
[2]
  ED50 (anti-ulcer action), comparison compound: 26.54 mg/kg

## CC(C)c1cc2c(c(O)c1O)[C@@]13CCCC(C)(C)[C@@H]1C[C@@H]2OC3=O [carnosol]
[1]
  ED50: 9.6 mg/kg
  anti-ulcer action: potent anti-ulcer action
